# Several values for one entry are separate records, joined by “and”; a condition that tells them apart may be missing. Identical values can stand only once. Like-named read-outs stand apart in the source and are kept apart here.
# Columns and labels:
# CYP3A4 = CYP3A4 (Homo sapiens, UniProt P08684); assay: Cocktail DDI study: PK of midazolam and 1-OH midazolam with/without nivasorexant; details: for t max: median (range)
# healthy subjects = assay: Safety and tolerability in the clinical study; details: Day 1 to Day 15, healthy subjects
# CYP2C19 [1] = target: T1, CYP2C19 (Homo sapiens, UniProt P33261); details: for t max: median (range); for t max median difference B–A / t max median difference D–A: median difference (90% CI); for AUC0–24 ratio Trt B/Trt A / C max ratio Trt B/Trt A: initial nivasorexant dose vs cocktail alone; for C max / AUC0–24 / t ½: geometric mean (95% CI)
# T1 sequence (P33261 whole entry): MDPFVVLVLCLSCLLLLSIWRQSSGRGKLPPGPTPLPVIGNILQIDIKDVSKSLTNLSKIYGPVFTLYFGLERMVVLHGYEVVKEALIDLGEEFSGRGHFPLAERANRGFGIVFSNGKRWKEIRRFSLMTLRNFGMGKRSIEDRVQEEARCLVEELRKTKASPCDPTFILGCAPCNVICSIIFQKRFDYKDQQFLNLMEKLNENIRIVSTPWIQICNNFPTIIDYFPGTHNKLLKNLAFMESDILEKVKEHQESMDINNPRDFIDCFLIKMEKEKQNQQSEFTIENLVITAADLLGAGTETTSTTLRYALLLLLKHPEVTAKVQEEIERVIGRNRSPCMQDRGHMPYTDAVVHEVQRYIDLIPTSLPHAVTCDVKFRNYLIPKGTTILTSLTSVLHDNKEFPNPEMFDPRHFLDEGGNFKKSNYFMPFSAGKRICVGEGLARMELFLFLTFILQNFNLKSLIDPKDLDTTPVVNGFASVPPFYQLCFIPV
# CYP2C19 [2] = target: T1, CYP2C19; assay: clinical; details: both, in vivo; for AUC(0-t) / half-life: geometric mean (95% CI); for half-life: t ½
# CYP2C9 = CYP2C9 (Homo sapiens, UniProt P11712); details: with flurbiprofen, tolbutamide, and warfarin; cited from earlier work
# Sequence of CYP2C9 (P11712 whole entry): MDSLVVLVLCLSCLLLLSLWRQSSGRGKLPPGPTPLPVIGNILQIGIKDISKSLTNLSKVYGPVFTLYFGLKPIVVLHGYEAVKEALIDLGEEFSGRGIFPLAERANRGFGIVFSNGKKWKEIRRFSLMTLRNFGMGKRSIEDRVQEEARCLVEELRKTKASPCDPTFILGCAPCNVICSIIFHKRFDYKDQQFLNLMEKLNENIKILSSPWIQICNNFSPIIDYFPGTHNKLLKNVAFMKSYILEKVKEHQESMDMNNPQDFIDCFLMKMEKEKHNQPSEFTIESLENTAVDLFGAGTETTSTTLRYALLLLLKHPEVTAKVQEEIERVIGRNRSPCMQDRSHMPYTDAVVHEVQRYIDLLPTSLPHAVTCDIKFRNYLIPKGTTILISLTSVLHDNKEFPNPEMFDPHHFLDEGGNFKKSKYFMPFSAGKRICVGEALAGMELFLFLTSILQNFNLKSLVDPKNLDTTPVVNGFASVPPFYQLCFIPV
# [3] = Trt A, Day 1, cocktail alone, geometric mean (95% CI)
# [4] = Trt B, Day 8, cocktail + initial 100 mg nivasorexant, geometric mean (95% CI)
# [5] = Trt B, Day 8, cocktail + initial 100 mg nivasorexant
# [6] = Trt D, Day 15, cocktail + nivasorexant at steady state, geometric mean (95% CI)
# [7] = Trt D, Day 15, cocktail + nivasorexant at steady state
# [8] = ratio of geometric means (90% CI)
# [9] = ratio of geometric means (90% CI), initial nivasorexant dose vs cocktail alone
# [10] = ratio of geometric means (90% CI), nivasorexant steady state vs cocktail alone
# Sequence of CYP3A4 (P08684 whole entry): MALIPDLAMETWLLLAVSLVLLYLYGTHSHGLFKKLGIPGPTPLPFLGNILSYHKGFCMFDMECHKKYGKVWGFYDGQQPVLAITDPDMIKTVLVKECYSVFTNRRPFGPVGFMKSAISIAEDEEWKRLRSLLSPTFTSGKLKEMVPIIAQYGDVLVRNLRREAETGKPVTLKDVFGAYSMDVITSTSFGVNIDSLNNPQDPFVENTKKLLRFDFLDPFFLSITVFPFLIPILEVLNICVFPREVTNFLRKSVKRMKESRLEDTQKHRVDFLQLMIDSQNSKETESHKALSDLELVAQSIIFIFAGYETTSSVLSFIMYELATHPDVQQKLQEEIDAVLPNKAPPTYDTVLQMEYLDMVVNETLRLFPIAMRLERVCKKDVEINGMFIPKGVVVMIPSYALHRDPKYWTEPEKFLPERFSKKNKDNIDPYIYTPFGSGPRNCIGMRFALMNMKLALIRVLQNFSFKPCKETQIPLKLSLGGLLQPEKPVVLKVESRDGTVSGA
smiles,measurement,setting,value
"OCc1ncc2n1-c1ccc(Cl)cc1C(c1ccccc1F)=NC2 [1‐OH midazolam, 1‐hydroxy (OH) midazolam]",AUC0–24,CYP3A4; [3],8.50 (7.23–10.00) ng*h/mL
same,t ½,CYP3A4; [3],2.27 (1.58–3.25) h
same,t max,"CYP3A4; Trt A, Day 1, cocktail alone",0.50 (0.50–3.00) h
same,AUC0–24,CYP3A4; [4],8.64 (7.37–10.13) ng*h/mL
same,C max,CYP3A4; [4],4.12 (3.53–4.82) ng/mL
same,t ½,CYP3A4; [4],2.94 (2.04–4.22) h
same,t max,CYP3A4; [5],0.75 (0.50–1.50) h
same,AUC0–24,CYP3A4; [6],9.88 (8.02–12.18) ng*h/mL
same,t ½,CYP3A4; [6],9.04 (6.82–11.97) h
same,t max,CYP3A4; [7],0.50 (0.50–1.50) h
same,t max median difference B–A,CYP3A4; median difference (90% CI),0.00 (0.000–0.13) h
same,t max median difference D–A,CYP3A4; median difference (90% CI),0.00 (−0.13–0.13) h
same,t ½ ratio Trt B/Trt A,CYP3A4; [8],1.29 [1.03–1.62]
same,t ½ ratio Trt D/Trt A,CYP3A4; [8],3.05 (2.03–4.58)
same,AUC0–24 ratio Trt B/Trt A,CYP3A4; [9],1.02 (0.96–1.08)
same,C max ratio Trt B/Trt A,CYP3A4; [9],1.02 (0.91–1.15)
same,t ½ ratio Trt B/Trt A,"CYP3A4; ratio of geometric means (90% CI), listed as 1‐OH Midazolam",1.29 (1.03–1.62)
same,AUC0–24 ratio Trt D/Trt A,CYP3A4; [10],1.15 (1.06–1.24)
same,C max ratio Trt D/Trt A,CYP3A4; [10],0.86 (0.75–0.98)
COc1ccc2[nH]c([S+]([O-])Cc3ncc(C)c(OC)c3C)nc2c1 (stereo not shown) [omeprazole],safety and tolerability (in words),healthy subjects,safe and well tolerated
same,t max,"CYP2C19 [1]; Trt A, Day 1, cocktail alone",3.00 (1.00–6.00) h
same,t max median difference B–A,CYP2C19 [1],0.5 h
same,t max median difference D–A,CYP2C19 [1],1.00 h
same,t max median difference B–A,CYP2C19 [1]; listed as Omeprazole,0.50 (0.00–1.49) h
same,t max median difference D–A,CYP2C19 [1]; listed as Omeprazole,1.00 (0.50–1.75) h
same,t ½ ratio Trt B/Trt A,CYP2C19 [1]; [8],1.46 (1.24–1.72)
same,t ½ ratio Trt D/Trt A,CYP2C19 [1]; [8],2.01 (1.69–2.40)
same,AUC0–24 ratio Trt B/Trt A,CYP2C19 [1]; [8],2.05 and 2.1
same,C max ratio Trt B/Trt A,CYP2C19 [1]; [8],1.60 (1.30–1.97)
same,AUC0–24 ratio Trt D/Trt A,CYP2C19 [1]; [10],6.84 and 6.8
same,C max ratio Trt D/Trt A,CYP2C19 [1]; [10],3.31 (2.55–4.28)
same,Cmax,CYP2C19 [2]; 20 mg,162 ng/mL
same,AUC(0-t),"CYP2C19 [2]; AUC0–24, Trt A, Day 1, cocktail alone",372 ng·h/mL
same,AUC(0-t),"CYP2C19 [2]; AUC0–24, Trt D, Day 15, cocktail + nivasorexant at steady state",2670 ng·h/mL
same,half-life,"CYP2C19 [2]; Trt A, Day 1, cocktail alone",59.4 min
same,half-life,CYP2C19 [2]; [7],119 min
OC(Cn1cncn1)(Cn1cncn1)c1ccc(F)cc1F [fluconazole],increase in AUC ratio of CYP2C9 probe substrates,CYP2C9,approximately two‐fold
COc1ccc2nc([S+]([O-])Cc3ncc(CO)c(OC)c3C)[nH]c2c1 (stereo not shown) [5‐OH omeprazole],C max,"CYP2C19 [1]; Trt A, Day 1, cocktail alone (omeprazole 20 mg)",129 (110–151) ng/mL
same,AUC0–24,"CYP2C19 [1]; Trt A, Day 1, cocktail alone",367 (332–406) ng*h/mL
same,t ½,"CYP2C19 [1]; Trt A, Day 1, cocktail alone",1.34 (1.20–1.49) h
same,t max,"CYP2C19 [1]; Trt A, Day 1, cocktail alone",3.00 (1.00–6.00) h
same,AUC0–24,CYP2C19 [1]; [5],338 (314–363) ng*h/mL
same,C max,CYP2C19 [1]; [5],97.0 (85.0–110.7) ng/mL
same,t ½,CYP2C19 [1]; [5],1.53 (1.30–1.80) h
same,t max,CYP2C19 [1]; [5],3.49 (1.50–6.02) h
same,AUC0–24,CYP2C19 [1]; [7],278 (253–305) ng*h/mL
same,t ½,CYP2C19 [1]; [7],2.03 (1.79–2.32) h
same,t max,CYP2C19 [1]; [7],4.00 (1.50–10.00) h
same,t max median difference B–A,CYP2C19 [1],0.50 (0.00–1.16) h
same,t max median difference D–A,CYP2C19 [1],1.25 (0.75–2.00) h
same,t ½ ratio Trt B/Trt A,CYP2C19 [1]; [8],1.14 (0.99–1.32)
same,t ½ ratio Trt D/Trt A,CYP2C19 [1]; [8],1.50 (1.36–1.66)
same,AUC0–24 ratio Trt B/Trt A,CYP2C19 [1]; [8],0.92 (0.85–1.00)
same,C max ratio Trt B/Trt A,CYP2C19 [1]; [8],0.75 (0.66–0.86)
same,AUC0–24 ratio Trt D/Trt A,CYP2C19 [1]; [10],0.74 (0.67–0.82)

# — publication PMC10557102 (Pharmacology Research & Perspectives, 2023)
